Reference: patent EP3753563A1, “ANTI-HERPESVIRUS GUANOSINE ANALOGUE FOR THE INHIBITION OF BASAL AUTOPHAGY” (Helmholtz-Zentrum für Infektionsforschung GmbH, priority 2019, dated 2020)

Legend:
[1] = test system: 3T3 fibroblasts harbor a RFP-GFP-LC3B tandem reporter construct; test: RFP-GFP-LC3B tandem reporter analysis of autophagic flux; format: cell-based, mouse; conditions: for mode of autophagy modulation: mouse 3T3 fibroblasts
Procedure: (§1) For the single reporter analyses of figure 1 A549 stably transduced with a retroviral GFP LC3 fusion vector were used, for the tandem reporter analyses of figure 2 NIH mouse fibroblasts stably transduced with a retroviral RFP-GFP-LC3B fusion construct were employed. Cells were seeded on 96-well plates at a density of 3.5 x 10^4 cells per well in 100 µL of their respective growth medium (DMEM for NIH3T3 and F-12K for A549, respectively). The plates were left at room temperature for one hour without moving them to guarantee an even distribution of the cells on the well bottom and then cultured over night at 37 °C and 5% CO2.
(§2) On the next day, compounds were added at the appropriate concentration in either 100 µL of their normal fed medium or 100 µL of Hank's balanced salt solution (HBSS) to induce starvation and then cultured at 37 °C and 5% CO2 for 3 h or 1.5 h respectively. Subsequently, cells were carefully washed once with phosphate buffered saline (PBS), fixed in 4% formaldehyde for 20 min at room temperature and washed again twice with PBS. Nuclear staining was performed using 0.05% Hoechst 33342 solution in PBS for 10 min at room temperature.
(§3) After another two times of washing in PBS, cells could be stored in PBS at 4 °C and were ready for measurement with the automatic fluorescence microscope (ImageXpress Micro XLS Widefield High-Content Imaging system). For each well, images at nine different sites were taken automatically (60x objective, magnification 600x). Exposure times were 150 ms for DAPI, 1000 ms for FITC (single reporter LC3) and 150 ms for DAPI, 1000 ms for FITC, 5000 ms for Texas Red (tandem reporter analysis).
NIH/3T3 cells stably expressing RFP-GFP-LC3 were treated to induce or inhibit autophagy (for control) and with the compound in question and taken for image acquisition (described above). Between 120-160 cells were analyzed in each quantification for vesicular, red spot numbers and colocalization of punctate red/green signals using the Gen5 software package (BioTek). Average values are shown.
In this assay, red spot numbers correlate with total LC3 autophagic particles, yellow colocalization parallels the number of autophagosomes/phagophores.

[2] = test system: A549 GFP-LC3B reporter cells; test: High-content GFP-LC3B puncta analysis in fed or starved A549 reporter cells; format: cell-based, human
Procedure: as §1, §2
as §3, with “Exposure times were 150 ms for DAPI, 1000 ms for FITC (single reporter LC3) and 150 ms for DAPI, 1000 ms for FITC, 5000 ms for Texas Red (tandem reporter analysis).” left out
Duplicate samples were analyzed comprising 500-1000 cells/well, which represents a coverage of at least 2%/well. Analyses were performed using the Transfluor modul of MetaXpress 6 software (Molecular Devices) with the following settings: vesicle width 0.5 µm - 5 µm and necessary intensity above local background 2000 gray levels determined from the FITC or 500 gray levels determined from the Texas Red image. Size of nuclei 5 µm - 30 µm and necessary intensity above local background 2000 gray levels determined from the DAPI image.

[3] = test system: wt and mutant ATG4D^G1288A Lagotto Romagnolo dog fibroblasts; test: LC3 Western blot of basal and induced autophagy in dog fibroblasts (NVSD model); format: cell-based
Procedure: Induction (starvation in Earle's Balanced Salt Solution (EBSS)) increases autophagy activity, as detected by formation of the marker LC3-II. Since autophagy consists of several steps and the last one is a degradation step, a block must be set in order to assess the proportion of the synthesis/maturation step more precisely. To this end, Bafilomycin A1 (BafA1) is added to the cells. BafA1 inhibits the fusion of autophagosomes to autolysosomes and then the degradation of the vesicle content. The comparison +/- Baf A1 is used to measure the autophagy flux. Since BafA1 inhibits the degradation of vesicle contents, LC3-II determination in WBs can be used to determine the rate of autophagosome production/maturation (corresponding to the early to middle part of the autophagy process) and the rate of autolysosomal degradation (late phase), i.e. the total degradation capacity.
A reference sample was loaded onto each gel to compare the results of different gels. The reference sample consists of WT cells grown in full medium conditions without any treatment. Graphs show expression levels of LC3-II normalized to the loading control (tubulin) and the reference sample and represent mean + SEM.
Fibroblasts from affected dogs and age-, breed-, and sex-matched controls were cultured in high glucose Dulbecco's Modified Eagle Medium (DMEM 41965-039 Gibco) with 10% fetal bovine serum (FBS 10500056 Gibco) and penicillin-streptomycin (PenStrep15140122 Gibco). During second or third passages, cells were seeded at equal density onto Petri dishes and additionally onto glass cover slips. […] Beta actin was used as the loading control for relative quantification of the blots (anti-beta Actin PA5-16914 Thermo Fischer Scientific). Signals were visualized by enhanced chemiluminescence and further analyzed by densitometry. […]

[4] = test system: HSV; conditions: read-out: EC 50 concentration for HSV inhibition; cited from earlier work

Row | SMILES | mode of autophagy modulation [1] | total LC3 containing autophagic particle numbers compared to the control ([1]; red spot numbers, 2 µM Chloroquine, 120-160 cells) | reduction of LC3 fluorescence compared to the control ([2]; fed A549 cells, vesicular GFP 3h after treatment) | LC3-II levels of basal autophagy ([3]; mutant LR cells, 1 µM A2, two hours, with BafA1) | LC3 levels induced by starvation ([3]; starvation in EBSS, 1 µM A2 (lanes 4 and 8)) | LC3 I ([3]; treated mutant cells, Western blot lanes 5 DMSO and A2) | EC50 [4] | amount of membrane-bound GFP-LC3 compared to the control ([2]; fed cells (basal autophagy), 3 h, LC3-positive vesicle area per cell) | inhibition of induced autophagy ([2]; starved cells, 1.5 h) | reduction of the number of autolysosomes ([1]; calculated by subtraction) | reduction of total autophagic particle numbers ([1]; compared to the control) | autophagosome/phagophores ([1]; yellow colocalization)
1 | CCN(CC)CCCC(C)Nc1ccnc2cc(Cl)ccc12 (stereo not shown) [Chloroquine] | late inhibition | increased | – | – | – | – | – | – | – | – | – | –
2 | CC(=O)OCC(CCn1cnc2cnc(N)nc21)COC(C)=O [Famciclovir] | – | – | 2 -fold | – | – | – | – | – | – | – | – | –
3 | Nc1nc2c(ncn2COCCO)c(=O)[nH]1 [compound A2, aciclovir] | early inhibition of autophagy | – | – | diminishes LC3-II levels of basal autophagy in mutant LR cells to level observed in wt cells | nearly unaltered | less LC3 I seems to be present | 1300 nM | 60% | does not inhibit induced autophagy | 4 fold | 40% | slight increase
